Laboratory results published in patent publication US20080095826A1, “Method of Increasing Peripheral Blood Lymphocytes” (priority 2006, published 2008).
Several values for one entry are separate records, joined by “and”; a condition that tells them apart may be missing. Equal values may be shown once.

Key:
Format in all cases: in vivo, human
[1] = test system: Hospitalized elderly test subjects; assay: Assessment of general condition by a nurse or care assistant (Table 2)
Protocol: (§1) In the test of Example 1, the test subject was assessed by a nurse or a care assistant for the improvement of the general condition between immediately before the start of the administration of the rice gruel containing a salt of glutamic acid e and 2 months thereafter. The test subjects took the Hasegawa Dementia Scale-Revised for the following 9 items immediately before the administration and 2 months thereafter.

[2] = test system: Hospitalized elderly test subjects; assay: Rice gruel with monosodium glutamate monohydrate fed to hospitalized elderly for 2 months; blood indices, eating ratio; settings: Friedman test, p<0.05, FIG. 1
Protocol: Monosodium glutamate monohydrate was added to rice gruel to 0.5 wt %.
Hospitalized elderly test subjects (n=11 (2 males, 9 females), average age of 85.8±8.2, average body weight of 39.7±5.7 kg), were fed the above-mentioned rice gruel with glutamic acid 3 times a day for 2 months, establishing a continuous administration of 0.8 g on average of monosodium glutamate monohydrate per meal.
From 1 month before the start of administration to 2 months after the start of administration, the eating ratio (ratio of weight of food actually eaten to weight of provided food) was measured. Blood samples were collected early in the morning immediately before the start of administration, 1 month after the start of adminstration, 2 months after the start of administration, and 1 month after the completion of administration, and the blood indices were measured. In addition, the body weight was measured.

[3] = test system: Hospitalized elderly test subjects; assay: Hasegawa Dementia Scale-Revised; settings: before vs 2 months after intake; particularly for the items relating to speech; FIG. 3
Protocol: as §1
2. what year, what month, what date, what day of the week?
5. continue to subtract 7 from 100
6. say numbers in reverse order
7. read out from memory of item 4
9. say name of vegetables.

[4] = of 11 test subjects, before vs 2 months after start of administration

Structure (SMILES): N[C@@H](CCC(=O)O)C(=O)[O-].O.[Na+] [monosodium glutamate monohydrate, Monosodium glutamate monohydrate]
- mind and body conditions such as speech recovery, expression of emotion ([1]; almost all test subjects, 2 months after start of administration): tendency toward improvement
- Brighter facial expression: number of test subjects marked ◯ [1, 4]: 8
- Clearer articulation: number of test subjects marked ◯ [1, 4]: 7
- Eating by tightly holding a spoon: number of test subjects marked ◯ [1, 4]: 2
- Establishment of conversation: number of test subjects marked ◯ [1, 4]: 4
- Eyes can be opened wide: number of test subjects marked ◯ [1, 4]: 6
- Louder voice: number of test subjects marked ◯ [1, 4]: 4
- Outward facial expression (delight, anger, sorrow and pleasure): number of test subjects marked ◯ [1, 4]: 6
- Recognition of meal: number of test subjects marked ◯ [1, 4]: 3
- Recovery of memory: number of test subjects marked ◯ [1, 4]: 2
- Use of voice: number of test subjects marked ◯ [1, 4]: 4
- 1 point for ◯, total points (scale of one to ten) ([1]; one value per individual test subject (No. 6598, 7012, 7020, 6342, 6990, 5039, 7082, 7142, 6957, 5742, 6362), 2 months, monohydrate): 7 points and 3 points (5×) and 10 points and 2 points (2×) and 6 points and 4 points
- peripheral lymphocyte count ([2]; 1 month after completion of administration compared to during administration): significantly decreased
- peripheral lymphocyte count ([2]; during 2 months of administration, 0.8 g per meal 3 times a day): increased significantly
- Hasegawa Dementia Scale-Revised grade points [3]: grade points increased
